This is an account of results in US20060293343A1, “Pyrimidine derivatives” (Asahi Kasei Pharma Corporation, priority 2005, published 2006).

Like-named read-outs stand apart in the source and are kept apart here.

Data set [1] relates to T1, PDE4.
T1 construct: The PDE4 enzyme was purified from U937 cells that are the cells derived from lymphoma
In words: Inhibitory action of PDE4 enzyme activity (PDE4 purified from U937 cells). Type of data set: biochemical. The note with it: PDE4 fraction purified from U937 cells; [3H]-cAMP substrate; 30° C., 10 minutes. As to the method:
(1) Purification of PDE4 from U937 Cells
The PDE4 enzyme was purified from U937 cells that are the cells derived from lymphoma. U937 cells were suspended in buffer solution A (20 mM Tris-HCl(pH 6.5), 1 mM MgCl2, 0.1 mM EGTA, 3 mM 2-mercaptoethanol) containing protease. inhibitor cocktail (manufactured by Sigma Co.), and a soluble fraction was obtained by centrifugation after ultrasonic disintegration (100,000 G, 30 minutes, 4° C.). […] Each fraction was tested for the cAMP metabolized PDE activity to identify the fractions containing PDE4 enzyme.
(2) Measurement of Inhibitory Activity of PDE4 Enzyme Activity
A desired concentration of the test compound was allowed to react in a reaction mixture (100 μL; 40 mM Tris-HCl (pH 7.4), 5 MM MgCl2, 4 mM 2-mercaptoethanol, […] cAMP, 0.83 μCi [^3H]-cAMP and PDE4 fraction) at 30° C. for 10 minutes. The enzyme reaction was stopped by adding 25 μL of trichloroacetic acid to the reaction mixture. The reaction solution was charged on a neutral alumina column equilibrated with 0.1 M of 2-[[tris(hydroxylmethyl)methyl]-amino]-1-ethanesulfonic acid (TES) buffer (pH 8.0) and, after washing the column with a sufficient amount of 0.1 M TES buffer solution, the column was eluted with 2N NaOH. A 500 μL aliquot of the eluate containing [^3H]-5′AMP product was filled in a scintillation vial containing the scintillation cocktail (5 ml, manufactured by Perkin Elmer Co.) to measure radioactivity. […] The inhibitory action of PDE4 enzyme activity was expressed by IC50 (nM). Ex. No. in Table 8 denotes the example No.

The test system of data set [2] is TNF-α production in LPS-stimulated mouse mononuclear cells. In words: Inhibitory action of TNF-α production using mouse mononuclear cells (in vitro). It is filed as cell-based. The note with it: mouse mononuclear cells from peripheral blood of C3H/He mouse; LPS 5 μg/mL, 21 hours; TNF-α ELISA; read-out: IC50 (nM), suppression action of TNF-α production. The procedure: Mouse mononuclear cells were isolated from the peripheral blood of C3H/He mouse (manufactured by Japan SLC Co., male), and were suspended in a culture medium (trade name RPMI 1640 manufactured by Gibco Co.) containing 10% bovine serum. The cells were seeded in a 96 well plate as 50,000 cells/well, the test compound was added at a desired concentration, and the plate was allowed to stand in an incubator containing 5% CO2 at .37° C. for 15 minutes. LPS was added thereafter at a final concentration of 5 μg/mL, and the plate was allowed to stand in the incubator for 21 hours.
The culture medium containing produced TNF-α was retrieved, and the amount of TNF-α was measured according to the protocol attached to mouse TNF-α ELISA kit (manufactured by R & D Systems Co.). […] The suppression action of TNF-α was expressed-by […] (nM). Ex. No. in Table 9 denotes the example No.

Data set [3] concerns TNF-α production induced by LPS. The data set can be described thus: Inhibitory action of TNF-α production (in vivo) induced by LPS using mouse. As to the method: C3H/He mouse (manufactured by Japan SLC Co., male) was used as a test animal. A desired concentration of the test sample was suspended in 0.5% methyl cellulose solution. The weight of the mouse was measured, and the test compound solution was orally administered at a dosage of 10 mL/kg while only 0.5% methyl cellulose was administered to the reference group. One group contained 5 to 7 mice. LPS was dissolved in physiological saline, and 10 μg was intraperitoneally administered to each mouse. The test compound was administered first, then LPS was administered 60 minutes thereafter. After 90 minutes, the blood was sampled from the large abdominal vein with the heparin, and a plasma was obtained by centrifugation. The content of TNF-α in the plasma was measured according to the protocol attached to TNF-α ELISA kit (manufactured by R & D System Co.). […] The suppression action of TNF-α production was represented by ED50 (mg/kg). Ex. No. in Table 11 denotes the example No.

Data set [4] deals with rabbit gastric gland cells. The data set can be described thus: Action on gastric acid secretion ability (in vitro), 14C-aminopyrine uptake in gastric gland cells. It is filed as cell-based. The note with it: Oryctolagus cuniculus, histamine 0.3 to 1.0 μM. As to the method:
Gastric acid secretion ability (as an index of the side effect) was tested according to the methods by BergLindh and Obrink (Acta Physiol. Scand. 97:401-414, 1976) and Sack and Speney (Am. J. Physiol. 243:G313-G319, 1982).
Gastric gland cells were prepared by collagenase treatment using male rabbit (Japanese white strain, manufactured by Oriental Yeast Co.).
The test compound, ^14C-aminopyrine (1.0 nmol/mL; 0.1 μCi/nmol) and histamine (0.3 to 1.0 μM) were incubated for a given time period, and gastric gland cell pellets obtained after centrifugation and washing were lysed with 100 μL of 1N-KOH. The lysate was filled in a scintillation vial containing a scintillation cocktail (manufactured by Perkin Elmer Co.) to measure the radioactivity. The gastric acid secretion action by the test compound was calculated as EC50, and the ratio of the activity relative to IC50 of suppression of TNF-α production described in Test Example 2 (degree of dissociation A) was determined from the following equation. The larger degree of dissociation A is more preferable. The results in Table 10 represent that secretion of the gastric acid ability(EC50) was lower activity in the compound of the invention, salts thereof or prodrugs thereof as compared with the suppression effect of TNF-α production(IC50). Ex. No. in Table 10 denotes the example No.
Degree of dissociation A=EC50 of gastric acid secretion ability/IC50 of suppression of TNF-α production

For data set [5], the system named is C3H/He mouse. In words: Gastric emptying test of mouse (in vivo). As to conditions: oral, test meal 60 minutes after compound. As to the method:
C3H/He mouse (manufactured by Japan SLC Co., male) fasted for 21 to 24 hours but allowed free access to water, was used as an experimental animal. A desired concentration of the test sample was suspended in 0.5% methyl cellulose solution. The weight of the mouse was measured, and the test compound solution was orally administered at a dosage of 10 mL/kg while only 0.5% methyl cellulose solution was administered to the reference group. One group contained 5 mice. A 1.5% methyl cellulose solution containing 0.05% phenol, red was used as a test meal solution. The test compound was administered, and 0.2 ml of the test meal was orally administered at 60 minutes thereafter. […] A 10% trichloroacetic acid solution (0.5 mL) was added to 5 mL of the supernatant, which was further centrifuged to remove proteins. A solution prepared by adding 125 μL of 2 N NaOH to the supernatant (1 mL) obtained by centrifugation was measured with a spectrophotometer (550 nm), and inhibition of transfer from the stomach to the small intestine was expressed by IC50 (mg/kg).

The test system of data set [6] is Marshall ferret. The data set can be described thus: Vomiting action using ferret. Type of data set: in vivo. As to conditions: oral, observed for more than 6 hours. As to the method:
Marshall ferret (male, weight 1 to 1.5 kg, manufactured by Charles River Laboratories Japan, Inc.) was used. A desired concentration of the test compound was suspended in 0.5% methyl cellulose solution. The weight of a ferret was measured, and the solution of the test compound was orally administered at a dosage of 1 to 8 ml/kg. Only 0.5% methyl cellulose solution was administered to the reference group. One group contained 4 animals.

[7] abbreviates: C3H/He mouse, orally administered 60 minutes before LPS 10 μg intraperitoneally, plasma TNF-α 90 minutes after LPS, read-out: ED50 (mg/kg), suppression action of TNF-α production.
[8] abbreviates: mouse, oral, LPS 60 minutes after compound, plasma TNF-α after 90 minutes, read-out: suppression of TNF-α production ED50.

Consider `C=CCc1c(C)nc(-c2ccsc2)nc1Nc1ccc(C(=O)O)cc1` [Example 11], for which the IC50 in data set [1] was found to be 1170 nM; in data set [2], 790 nM. In data set [3] (setting [7]), the ED50 is 26 mg/kg.
For `CCCc1c(CC)nc(-c2ccsc2)nc1Nc1ccc(C(=O)O)cc1` [Example 15] the same measures were 490 nM, 55 nM and 13 mg/kg.
As to `C=CCc1c(CC)nc(-c2ccsc2)nc1Nc1ccc2cc(C(=O)O)ccc2c1` [Example 17], the IC50 in data set [1] stood at 9 nM; in data set [2] it was 24 nM. This compound registered an EC50 in data set [4] of 1690 nM. Further, the ED50 in data set [3] (setting [7]) and in data set [3] (setting [8]) was 3 mg/kg throughout. Further, the “gastric emptying test IC50 (inhibition of transfer from the stomach to the small intestine)” value in data set [5] was determined as 14 mg/kg. In data set [6] (dosage of 50 mg/kg), the “incidence of vomiting by the ferret” value is given as “no incidence of vomiting”.
Consider `CCc1c(C)nc(-c2ccsc2)nc1Nc1ccc(C(=O)O)cc1` [Example 18], for which the IC50 was 1680 nM in data set [1] and 202 nM in data set [2]. Moreover, the ED50 in data set [3] (setting [7]) was 37 mg/kg.
Consider `CCc1nc(-c2ccsc2)nc(Nc2ccc(C(=O)O)cc2)c1CC` [Example 57], for which the half-maximal inhibitory concentration (IC50) in data set [2] is 44 nM. In addition, in data set [4], the EC50 came to 460 nM. For the same compound, in data set [3] (setting [7]), the ED50 is 24 mg/kg.
For `CCc1nc(-c2ccsc2)nc(Nc2ccc(CC(=O)O)cc2)c1CC` [Example 58] the same measures were 695 nM, 1310 nM and 8 mg/kg.
In the case of `CCc1nc(-c2ccsc2)nc(Nc2ccc3cc(C(=O)O)ccc3c2)c1CC` [Example 59], the 50% inhibitory concentration (IC50) turned out to be 41 nM in data set [1] and 69 nM in data set [2]. The midpoint of the response in data set [4], the EC50, lay at 227 nM. Besides, the ED50 in data set [3] (setting [7]) was found to be 6 mg/kg.
As to `CCc1c(C)nc(-c2ccc(SC)s2)nc1Nc1ccc(CC(=O)O)cc1` [Example 78], the half-inhibitory concentration (IC50) in data set [2] was 171 nM. In addition, in data set [4], it took 38400 nM to reach a half-maximal effect (EC50).
Turning to `CCc1nc(-c2cccs2)nc(Nc2ccc(C(=O)O)cc2)c1CC` [Example 83], the IC50 in data set [2] came to 46 nM. This compound also came in with an EC50 in data set [4] of 169 nM. The ED50 in data set [3] (setting [7]) stood at 22 mg/kg.
Turning to `CCc1nc(-c2cccs2)nc(Nc2ccc(CC(=O)O)cc2)c1CC` [Example 84], the IC50 in data set [2] stood at 533 nM. Besides, the EC50 in data set [4] worked out at 1660 nM. Also, the ED50 in data set [3] (setting [7]) is 17 mg/kg.
Turning to `CCc1nc(-c2cccs2)nc(Nc2ccc3cc(C(=O)O)ccc3c2)c1CC` [Example 85], the figures for the IC50 in data set [1] and in data set [2] were 76 nM and 29 nM, respectively.
Turning to `CCc1c(C)nc(-c2ccc(Br)s2)nc1Nc1ccc(CC(=O)O)cc1` [Example 148], in data set [2], the concentration for half-maximal inhibition (IC50) worked out at 676 nM. In data set [4], this compound showed an EC50 of 10100 nM. For the same compound, the ED50 in data set [3] (setting [7]) and in data set [3] (setting [8]) was 12 mg/kg in each case. Further, the “gastric emptying test IC50 (inhibition of transfer from the stomach to the small intestine)” value in data set [5] was 85 mg/kg. Further, in data set [6] (dosage of 100 mg/kg), the “incidence of vomiting by the ferret” value is recorded as “no incidence of vomiting”.
Turning to `CCc1nc(-c2ccco2)nc(Nc2ccc3cc(C(=O)O)ccc3c2)c1CC` [Example 188], the IC50 in data set [1] was determined as 59 nM; in data set [2] it was 46 nM.
The like results for `C=CCc1c(CC)nc(-c2ccco2)nc1Nc1ccc2cc(C(=O)O)ccc2c1` [Example 191] were, in that order, 90 nM and 44 nM.
For `CCc1c(C)nc(-c2cc(Br)cs2)nc1Nc1ccc(CC(=O)NO)cc1` [Example 193] the same measures were 70 nM and 39 nM.
